Test results from patent US9018251B2, “Method for treating brain cancer or reducing temozolomide-resistance of brain cancer cells” (China Medical University, priority 2011, dated 2015).
Where two headings read alike, the source gives them in different places.

What was measured:
[1] = test system: brain cancer cell line DBTRG; assay: MTT cell viability assay, DBTRG; assay type: cell-based; conditions: for viability at 500 µM: Concentration 500 μM; for IC50: 48 h, read-out: IC50 value
Description: (§1) The MTT (3-[4,5-dimethylthiahiazo-2-yl]-2,4-dipheny-tetrazolium bromide) cell viability assay was used to study the mortality effect of temozolomide to various brain cancer cell lines. (See Pauwels et al., J. Virol. Methods, 1988, 20, 309-321 for the MTT cell viability assay, which is incorporated hereinto by reference).
The cell viability rate and mortality rate were calculated based on the absorbance.

MGMT [2] = assay: MGMT protein expression (SDS-PAGE, western blotting) in 8901; assay type: cell-based; conditions: as concentration increased, treated 3 to 48 hours, FIG. 4
Description: (§2) Brain cancer cell lines 8901 and GBM22-TMZ with temozolomide-resistance were cultured in a petri dish with a diameter of 10 cm, respectively. A PBS solution was used to rinse the cells after the cell proliferation reached to 60% by volume of the dish. (Z)-butylidenephthalide or (E)-butylidenephthalide was added to treat the cells for 3 to 48 hours, and then the cells were collected. The total RNA of the cells was extracted and reverse transcribed into cDNA (using 50 micro-mole of […] and 50 pico-mole of random hexamers primer). One unit of ExTaq DNA polymerase, 200 nM dNTP (1 μL), and 2.5 mM of MgCl2 (1 μL) were added, and then 20 mM of MGMT nucleotide primers (1 μL each) and 50 μL of water were added.
(§3) In another aspect, the intracellular proteins of the aforesaid brain cancer cell lines 8901 and GBM22-TMZ were collected. SDS-PAGE and western blotting were used to analyze the expression of the MGMT protein in the brain cancer cell lines.

MGMT [3] = assay: MGMT RNA expression (RT-PCR, gel electrophoresis) in 8901; assay type: cell-based; conditions: as concentration increased, treated 3 to 48 hours, FIG. 3
Description: as §2
The sample was placed into a polymerase chain reaction (PCR) system (GeneAmp PCR System 2400, Perkin Elmer, USA). The condition was set as: denaturing, 94° C., 30 s; annealing, 55° C., 30 s; extension, […]; 30 cycles; and finally 72° C., 10 minutes. Afterwards, the system temperature was decreased to 4° C. to terminate the reaction. The product from the PCR was analysed by a 1.5% gel electrophoresis. The gel was analysed by Fluoro-Chem imaging system (Alpha InnoTech Cooperation) to determine the expression level of MGMT gene.

MGMT [4] = assay: MGMT protein expression (SDS-PAGE, western blotting) in GBM22-TMZ; assay type: cell-based, human; conditions: as concentration increased, FIG. 5
Description: as §2, §3

[5] = test system: brain cancer cell line GBM22-TMZ; assay: In vivo subcutaneous tumor transplant test; parameters: species or system Balb/c nude mice; conditions: 28th day
Description: An in vivo test was carried out by a subcutaneous tumor transplant mode to observe the anti-tumor activity of (Z)-butylidenephthalide, temozolomide, or their combination in vivo.
First, 2×10^6 cells of brain cancer cell line GBM22-TMZ with temozolomide-resistance were cultured sterilely and subcutaneously injected to Balb/c nude mice (purchased from the National Laboratory Animal Center, Taiwan) to carry out the in vivo tumor transplant experiment. When the tumor was grown to 100 mm^3 (length×width×width/2), the subcutaneous administration was carried out for treatment. On the contralateral side of the tumor tissue, at a position more than 1.5 cm, (Z)-butylidenephthalide was injected, or temozolomide was orally administrated, once per day consecutively for 5 days. In the treatment group in which (Z)-butylidenephthalide and temozolomide were administrated in combination, (Z)-butylidenephthalide was first subcutaneously administrated (SC), and 2 hours later, temozolomide was orally administrated (PO). After administration on the 5th day, the tumor size and the body weight of the mice were observed continuously for 28 days, and were measured every 3 days. The measurement value of the tumor size on the 28th day was used as the assessment result of the inhibiting activity on tumor growth. The smaller the value, the better the inhibition effect. […] There was a significant difference when P value was less than […]. The results are shown in Table 7, and FIGS. 11A and 11B.

[6] = test system: brain cancer cell line 8401; assay: MTT cell viability assay, 8401; assay type: cell-based
From the text: as §1

[7] = test system: brain cancer cell line GBM22-TMZ; assay: In vivo survival analysis, glioblastoma orthotopic xenografts; parameters: species or system Mice
Description: A survival analysis was carried out to investigate the antiglioma effect of the combination of (Z)-butylidenephthalide and temozolomide in vivo. Mice with established glioblastoma orthotopic xenografts from brain cancer cell line GBM22-TMZ were randomized to carry out the therapy with indicated temozolomide (66 mg/kg/day; 5 days), (Z)-butylidenephthalide (50 or 100 mg/kg/day; 5 days), or combinations thereof. Observation was recorded until the mice reached a moribund state, and survival results are shown as Kaplan-Meier survival curves.

[8] = test system: brain cancer cell line GBM22-TMZ; assay: MTT cell viability assay, GBM22-TMZ (with CalcuSyn combination index); conditions: Homo sapiens, 48 h
Description: In a 96-microwell plate, each well was cultured with 3×10^3 cells of brain cancer cell line 8901 which have temozolomide-resistance. The next day, different concentrations of temozolomide (0 to 1200 μM, 200 μL) or the combination of temozolomide and (Z)-butylidenephthalide (0 to 200 μM, 200 μL) were dropped into the well along the interior wall of the plate. Four microwell plates were used for each analysis, and four wells were used for each combination of various drug concentrations. A solvent was placed into the first row as the control group. After the cells were cultured for 2 days, the culture solution was drawn and discarded, and a culture solution containing 500 μg/mL of MTT (200 μL) was added to culture for another 4 hours. The culture solution was drawn and discarded, and 200 μL of DMSO was added, and then the microwell plate spectrometer was used to measure the absorbance of the cells at a wavelength of 570 nm. The cell viability rate and mortality rate and the concentrations of temozolomide that reached the mortality rate of 50% of various brain cancer cell lines (IC50) were calculated based on the absorbance.
In a 96-microwell plate, each well was cultured with 3×10^3 cells of brain cancer cell line 8901 or GBM22-TMZ with temozolomide-resistance. […] The microwell plate spectrometer was then used to measure the absorbance of the cells at a wavelength of 570 nm. […]

[9] = test system: brain cancer cell line 8901; assay: MTT cell viability assay, 8901 (with CalcuSyn combination index); assay type: cell-based; conditions: for IC50: 48 h, single agent, cultured 2 days, MTT
From the text: as §1

[10] = test system: brain cancer cell line G5T/VGH; assay: MTT cell viability assay, G5T/VGH; assay type: cell-based
From the text: as §1

[11] = read-out: Viability rate of DBTRG(%)
[12] = 48 h, single agent, cultured 2 days, MTT

CCC/C=C1/OC(=O)c2ccccc21 [(E)-butylidenephthalide, reference compound]
viability at 500 µM [1, 11]: 88%
viability at 1500 µM ([1]; Concentration 1500 μM, read-out: Viability rate of DBTRG(%)): 81%
viability at 2500 µM ([1]; Concentration 2500 μM, read-out: Viability rate of DBTRG(%)): 70%
killing of brain cancer cells ([1]; DBTRG, high dosage of 2500 μM): cannot kill brain cancer cells effectively
expression of proteins of MGMT (MGMT [2]): no significant changes
expression of RNA of MGMT (MGMT [3]): no significant changes

CCC/C=C1\OC(=O)c2ccccc21 [(Z)-butylidenephthalide]
expression of proteins of MGMT (MGMT [4]): reduced
IC50 [1]: ~250 µM
viability at 125 µM ([1]; Concentration 125 μM, read-out: Viability rate of DBTRG(%)): 80%
viability at 250 µM ([1]; Concentration 250 μM, read-out: Viability rate of DBTRG(%)): 58%
viability at 500 µM [1, 11]: 30%
growth inhibition of brain cancer cell line ([1]; DBTRG, 0 to 400 μM, FIG. 10): effectively inhibit the growth
Relative tumor size (fold) ([5]; SC consecutively for 5 days, 50 mg/kg/day): 2.7 fold
Relative tumor size (fold) ([5]; SC consecutively for 5 days, 100 mg/kg/day): 2.6 fold
growth inhibition of brain cancer cell line ([6]; 0 to 400 μM, FIG. 10): effectively inhibit the growth
Survival rate ([7]; (Z)-butylidenephthalide (50 mg/kg), Day 0): 100%
Survival rate ([7]; (Z)-butylidenephthalide (50 mg/kg), Day 5): 100%
Survival rate ([7]; (Z)-butylidenephthalide (50 mg/kg), Day 8): 100%
Survival rate ([7]; (Z)-butylidenephthalide (50 mg/kg), Day 11): 100%
Survival rate ([7]; (Z)-butylidenephthalide (50 mg/kg), Day 14): 100%
Survival rate ([7]; (Z)-butylidenephthalide (50 mg/kg), Day 18): 100%
Survival rate ([7]; (Z)-butylidenephthalide (50 mg/kg), Day 21): 66%
Survival rate ([7]; (Z)-butylidenephthalide (50 mg/kg), Day 28): 0%
Survival rate ([7]; (Z)-butylidenephthalide (50 mg/kg), Day 30): 0%
Survival rate ([7]; (Z)-butylidenephthalide (100 mg/kg), Day 0): 100%
Survival rate ([7]; (Z)-butylidenephthalide (100 mg/kg), Day 5): 100%
Survival rate ([7]; (Z)-butylidenephthalide (100 mg/kg), Day 8): 100%
Survival rate ([7]; (Z)-butylidenephthalide (100 mg/kg), Day 11): 100%
Survival rate ([7]; (Z)-butylidenephthalide (100 mg/kg), Day 14): 100%
Survival rate ([7]; (Z)-butylidenephthalide (100 mg/kg), Day 18): 100%
Survival rate ([7]; (Z)-butylidenephthalide (100 mg/kg), Day 21): 66%
Survival rate ([7]; (Z)-butylidenephthalide (100 mg/kg), Day 28): 0%
Survival rate ([7]; (Z)-butylidenephthalide (100 mg/kg), Day 30): 0%
IC50 [8]: 451 µM
expression of proteins of MGMT (MGMT [2]): reduced
expression of RNA of MGMT (MGMT [3]): reduced
growth inhibition of brain cancer cell line ([9]; 0 to 400 μM, FIG. 10): effectively inhibit the growth
IC50 [9]: 219 µM
growth inhibition of brain cancer cell line ([10]; 0 to 400 μM, FIG. 10): effectively inhibit the growth

Cn1nnc2c(C(N)=O)ncn2c1=O [temozolomide]
IC50 ([1]; DBTRG, single agent, cultured 2 days, MTT): 1660 µM
Relative tumor size (fold) ([5]; PO consecutively for 5 days, 66 mg/kg/day): 4.3 fold
IC50 [6, 12]: 831 µM
Survival rate ([7]; temozolomide (66 mg/kg), Day 0): 100%
Survival rate ([7]; temozolomide (66 mg/kg), Day 5): 100%
Survival rate ([7]; temozolomide (66 mg/kg), Day 8): 100%
Survival rate ([7]; temozolomide (66 mg/kg), Day 11): 66%
Survival rate ([7]; temozolomide (66 mg/kg), Day 14): 66%
Survival rate ([7]; temozolomide (66 mg/kg), Day 18): 66%
Survival rate ([7]; temozolomide (66 mg/kg), Day 21): 33%
Survival rate ([7]; temozolomide (66 mg/kg), Day 28): 0%
Survival rate ([7]; temozolomide (66 mg/kg), Day 30): 0%
IC50 [8]: > 3200 µM
IC50 [9]: 1200 µM
IC50 [10, 12]: 1660 µM
